Reference: patent US20140088032A1, “TREATMENT OF MASTITIS” (priority 2011, published 2014)
Values after ≈ are worked out from the molar mass of the structure shown. Values joined by “and” are separate entries in the source; they are usually repeats but may differ in a detail not shown here. Identical values can stand only once. “Also recorded” adds a separate entry of the source. Counter-ions that a name gives are not always drawn. Like-named read-outs stand apart in the source and are kept apart here.

Columns and labels:
[1] = tested on: S. aureus strain Newbould 305; assay: MIC against the S. aureus challenge strain; format: cell-based, Staphylococcus aureus; details: S. aureus Newbould 305 strain used for the challenge
[2] = tested on: Staphylococcus aureus strain Newbould 305 (ATCC 29740); assay: Example 1: experimental S. aureus mastitis in lactating cows, intramammary treatment; format: in vivo, Prim'Holstein lactating cows
Procedure: A Staphylococcus aureus strain Newbould 305 (ATCC 29740) stock suspension (about 10^11 CFU/ml) was kept frozen at −80° C. in peptone physiological water with 10% of glycerol. On day 0, the stock solution was thawed and diluted in peptone physiological water to a concentration of ca 1000 cfu/ml.
On Day 0 8 Prim'Holstein lactating cows, animals of between 2-5 years old and at least 2 months in lactation, were intramammarily inoculated into two homolateral quarters with 1 ml of S. aureus suspension per quarter (ca. 1000 cfu/quarter) into the teat cistern with sterile 2-ml syringes. Teat ends were disinfected with towels soaked in a disinfectant solution before infusion.
On day 6 after the challenge 4 cows (8 quarters) were treated with 75 mg cefquinome—one injector after each of 3 consecutive milkings—Group A. The 4 other cows infected were treated with 75 mg cefquinome as well, but 10 μg of re-LPS were infused just before each cefquinome infusion—Group B.
The standard assay for measuring mastitis in the dairy industry is to count the number of cells (originating from the cow) in the milk. This estimate is termed the somatic cell count (SCC). Specifically, the SCC reflects the levels of cells, including immune cells, such as leukocytes that are released from the lining and tissues of the udder of the infected animal, into the udder cavity. The number of somatic cells in a given volume of milk (typically 1 ml) provides a semi-quantitative estimate of the degree of mastitis, because unaffected animals typically have low SCC levels.
Milk samples were investigated for S. aureus presence and SCC levels at several time points during the study (days 2, 6, 9, 13, 16, 20, 23 post challenge for S. aureus bacteriology).
Clinical cure was assessed 16 days after treatment end (i.e. 23 days after the challenge), and was defined as having at least the two last consecutive milk samples with SCC <250000 cells/ml.

[3] = tested on: Staphylococcus aureus strain Newbould 305 (ATCC 29740); assay: Example 2: experimental S. aureus mastitis in lactating cows, intramammary treatment; format: in vivo, Prim'Holstein lactating cows; details: after Re-LPS infusion with neomycin/penicillin
Procedure: A Staphylococcus aureus strain Newbould 305 (ATCC 29740) stock suspension (about 10^9 CFU/ml) was kept frozen at −80° C. in peptone physiological water with 10% of glycerol. On day 0, the stock solution was thawed and diluted in peptone physiological water to a concentration of ca 200 cfu/ml.
On Day 0, 12 Prim'Holstein lactating cows, animals of between 2-8 years old and at least 1 month in lactation, were inoculated by intramammary route into two homo-lateral quarters, with 5 ml of S. aureus suspension per quarter (ca. 1000 cfu/quarter), using 5-ml syringes. Teat ends were disinfected with towels soaked in a disinfectant solution before infusion. […]
The standard assay for measuring mastitis in the dairy industry is to count the number of cells (originating from the cow) in the milk. […] The number of somatic cells in a given volume of milk (typically 1 ml) provides a semi-quantitative estimate of the degree of mastitis, because unaffected animals typically have low SCC levels. […]
Bacteriological cure was assessed 16 days after treatment end (i.e. 24 days after the challenge) and was defined as having at least the two last consecutive milk samples found negative for S. aureus (<5 cfu/ml).
Clinical cure was assessed 16 days after treatment end (i.e. 24 days after the challenge), and was defined as having at least the two last consecutive milk samples with SCC <250000 cells/ml.

TLR4 = details: relative to native LPS; cited from earlier work
[4] = relative to native LPS; cited from earlier work

Question: For CO/N=C(\C(=O)N[C@@H]1C(=O)N2C(C(=O)[O-])=C(C[n+]3cccc4c3CCCC4)CS[C@H]12)c1csc(N)n1 [cefquinome, I1-[[(6R,7R)-7-[[(2Z)-(2-amino-4-thiazolyl)-(methoxyimino)acetyl]amino]-2-carboxy-8-oxo-5-thia-1-azabicyclo[4.2.0-oct-2-en-3-yl]methyl]-5,6,7,8-tetrahydroquinoliniuminner salt], which MIC [1] is on record?
Answer: 0.25 mg/L

Question: What about the “Quarters cure rate, bacteriological + clinical” value ([2]; day 23) of the same compound?
Answer: 37.5% (3/8)

Question: And the “Quarters cure rate, clinical” value ([2]; day 23, two last samples SCC <250000 cells/ml)?
Answer: 37.5% (3/8)

Question: What about the Cure ([2]; individual quarter, assessed at day 23 (16 days after treatment end)) of the same compound?
Answer: no (4×) and yes (4×)

Question: What about the “Quarter milk SCC at day 9” value ([2]; individual quarter, day 9 relative to infection (day 0), treatment at day 6) of the same compound?
Answer: 628 ×10^3 cell/ml and 310 ×10^3 cell/ml and 521 ×10^3 cell/ml and 533 ×10^3 cell/ml and 763 ×10^3 cell/ml and 334 ×10^3 cell/ml and 795 ×10^3 cell/ml and 249 ×10^3 cell/ml

Question: And the “Quarter milk SCC at day 13” value ([2]; individual quarter, day 13 relative to infection, treatment at day 6)?
Answer: 384 ×10^3 cell/ml and 828 ×10^3 cell/ml and 1533 ×10^3 cell/ml and 414 ×10^3 cell/ml and 250 ×10^3 cell/ml and 177 ×10^3 cell/ml and 112 ×10^3 cell/ml and 134 ×10^3 cell/ml

Question: What about the “Quarter milk SCC at day 16” value ([2]; individual quarter, day 16 relative to infection, treatment at day 6) of the same compound?
Answer: 2032 ×10^3 cell/ml and 921 ×10^3 cell/ml and 254 ×10^3 cell/ml and 317 ×10^3 cell/ml and 74 ×10^3 cell/ml and 125 ×10^3 cell/ml and 785 ×10^3 cell/ml and 95 ×10^3 cell/ml

Question: And the “Quarter milk SCC at day 20” value ([2]; individual quarter, day 20 relative to infection, treatment at day 6)?
Answer: 2008 ×10^3 cell/ml and 717 ×10^3 cell/ml and 281 ×10^3 cell/ml and 589 ×10^3 cell/ml and 137 ×10^3 cell/ml and 177 ×10^3 cell/ml and 1686 ×10^3 cell/ml and 77 ×10^3 cell/ml

Question: And the “Quarter milk SCC at day 23” value ([2]; individual quarter, day 23 relative to infection, treatment at day 6)?
Answer: 1382 ×10^3 cell/ml and 739 ×10^3 cell/ml and 536 ×10^3 cell/ml and 186 ×10^3 cell/ml and 98 ×10^3 cell/ml and 109 ×10^3 cell/ml and 2482 ×10^3 cell/ml and 47 ×10^3 cell/ml

Question: With neomycin as the compound, how does the MIC [1] read?
Answer: 2 mg/L

Question: Which results are given for CCCCCCCCCCCCCC(=O)O[C@H](CCCCCCCCCCC)CC(=O)OC1C(NC(=O)C[C@@H](CCCCCCCCCCC)OC(=O)CCCCCCCCCCC)[C@H](OCC2O[C@H](OP(=O)(O)O)C(NC(=O)C[C@H](O)CCCCCCCCCCC)C(OC(=O)C[C@H](O)CCCCCCCCCCC)[C@@H]2O)OC(CO[C@]2(C(=O)O)CC(O[C@]3(C(=O)O)CC(O)[C@@H](O)C([C@H](O)CO)O3)[C@@H](O)C([C@H](O)CO)O2)[C@H]1OP(=O)(O)O.N.N.N.N (stereo partly drawn) [Re-LPS, Kdo2-lipid A]?
Answer: SCC levels induced by treatment ([2]; after Re-LPS infusion with cefquinome, Example 1): above 1.10^6 cells per ml; SCC levels induced by treatment [3]: above 1.10^6 cells per ml; Ability to activate TLR4 (TLR4): comparable to that of native LPS; Endotoxin activity [4]: equal to that of native LPS; also recorded: comparable to that of native LPS

Question: With CC1(C)S[C@@H]2[C@H](NC(=O)Cc3ccccc3)C(=O)N2[C@H]1C(=O)O [benzyl penicillin] as the compound, how does the MIC ([1]; Staphylococcus aureus, read-out: MIC) read?
Answer: 0.064 mg/L (≈ 0.191 µM)
